Patent US20050014830A1 (priority 2003, published 2005)
Where two headings read alike, the source gives them in different places.

Tests used:
[1] = tested on: Serratia bacterium; set-up: species or system Serratia species
[2] = tested on: enterovirus
[3] = tested on: SARS virus; set-up: species or system SARS virus (coronavirus)

**Q.** Which “surface roughness of the bacterium measured by AFM” value [1] does the source give for `O=C(O)CCCCCCCO` [8-hydroxyoctanoic acid] here?
**A.** increased

**Q.** What about the “AFM height of the enterovirus virion after treatment” value [2] of the same compound?
**A.** about 1,300 nm

**Q.** And the “conformation of the SARS virion (AFM picture)” value (“conformation of the SARS virion” below) ([3]; FIG. 9B, a few minutes after treatment)?
**A.** disruption

**Q.** And the “conformation of the SARS virion” value ([3]; FIG. 9C, a few more minutes into treatment)?
**A.** collapsed further more

**Q.** What about the “conformation of the SARS virion” value ([3]; FIG. 9D, final stage of treatment) of the same compound?
**A.** completely killed
